US8623857B2, “N-phenyl imidazole carboxamide inhibitors of 3-phosphoinositide-dependent protein kinase-1” (Merck Sharp & Dohme Corp., priority 2010, dated 2014)

The compounds below were run against T1, recombinant human PDK1 (Homo sapiens, UniProt O15530) (assay: PDK1 IMAP fluorescence polarization assay (inhibition of peptide substrate phosphorylation)). Conditions: Table 6; 10 nM PDK1 enzyme, 100 nM peptide substrate, 100 nM PIFtide, 2.5 uM ATP, 1.5 hours.
T1 construct: containing amino acids 51-556 of the human PDK1 enzyme; made in house; host or cells: Sf9 insect cells
T1 sequence (O15530 51-556): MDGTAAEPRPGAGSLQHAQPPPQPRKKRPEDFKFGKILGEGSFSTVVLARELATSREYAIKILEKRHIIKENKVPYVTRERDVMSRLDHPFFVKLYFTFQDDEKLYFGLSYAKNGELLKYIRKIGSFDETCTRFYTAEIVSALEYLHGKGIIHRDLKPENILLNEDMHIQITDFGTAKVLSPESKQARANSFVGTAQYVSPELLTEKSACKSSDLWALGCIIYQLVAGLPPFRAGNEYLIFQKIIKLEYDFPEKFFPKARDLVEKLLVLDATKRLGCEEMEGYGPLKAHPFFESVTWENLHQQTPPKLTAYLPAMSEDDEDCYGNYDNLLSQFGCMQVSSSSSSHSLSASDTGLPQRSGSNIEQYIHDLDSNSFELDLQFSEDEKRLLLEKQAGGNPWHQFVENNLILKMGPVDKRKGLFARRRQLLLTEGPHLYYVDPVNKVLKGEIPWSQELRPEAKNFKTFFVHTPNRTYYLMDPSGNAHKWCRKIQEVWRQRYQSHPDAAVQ
Type: biochemical

Structure (SMILES)	IC50
Cc1cc(-c2c[nH]c(C(=O)Nc3cccc(F)c3N3CCC(CN)CC3)n2)nc(N)n1 [Compound 47, N-[2-[4-(aminomethyl)-1-piperidinyl]-3-fluorophenyl]-4-(2-amino-6-methyl-4-pyrimidinyl)-1H-imidazole-2-carboxamide]	1 to 50 nM
NCC1CCN(c2c(F)cccc2NC(=O)c2nc(-c3cncnc3)c[nH]2)CC1 [Compound 63, N-[2-[4-(aminomethyl)-1-piperidinyl]-3-fluorophenyl]-4-(5-pyrimidinyl)-1H-imidazole-2-carboxamide]	1000 to 5000 nM
N[C@@H]1CCCN(c2c(F)cccc2NC(=O)c2nc(-c3ccc(F)cc3F)c[nH]2)C1 [Compound 38, N-[2-(3(R)-amino-1-piperidinyl)-3-fluorophenyl]-4-(2,4-difluorophenyl)-1H-imidazole-2-carboxamide]	251 to 1000 nM
CCNCCNC(=O)C1CCN(c2c(F)cccc2NC(=O)c2nc(-c3ccnc(C)c3)c[nH]2)CC1 [Compound 86, N-[2-(ethylamino)ethyl]-1-[2-fluoro-6-[[[4-(2-methyl-4-pyridinyl)-1H-imidazol-2-yl]carbonyl]amino]phenyl]-4-piperidinecarboxamide]	251 to 1000 nM
NCC1CCN(c2c(F)cccc2NC(=O)c2nc(-c3cccc(S(N)(=O)=O)c3)c[nH]2)CC1 [Compound 31, N-[2-[4-(aminomethyl)-1-piperidinyl]-3-fluorophenyl]-4-[3-(aminosulfonyl)phenyl]-1H-imidazole-2-carboxamide]	51 to 250 nM
N[C@@H]1CCCN(c2c(F)cccc2NC(=O)c2nc(Br)c[nH]2)C1 [Compound 12, N-[2-(3(R)-amino-1-piperidinyl)-3-fluorophenyl]-4-bromo-1H-imidazole-2-carboxamide]	51 to 250 nM
Cc1cc(-c2c[nH]c(C(=O)Nc3cccc(F)c3N3CCC(C(=O)N4CC5CCC(C4)O5)CC3)n2)ccn1 [Compound 78, N-[3-fluoro-2-[4-(8-oxa-3-azabicyclo[3.2.1]oct-3-ylcarbonyl)-1-piperidinyl]phenyl]-4-(2-methyl-4-pyridinyl)-1H-imidazole-2-carboxamide]	251 to 1000 nM
NCC1CCN(c2c(F)cccc2NC(=O)c2nc(-c3cn[nH]c3)c[nH]2)CC1 [Compound 53, N-[2-[4-(aminomethyl)-1-piperidinyl]-3-fluorophenyl]-4-(1H-pyrazol-4-yl)-1H-imidazole-2-carboxamide]	1 to 50 nM
CNCC1CCN(c2c(F)cccc2NC(=O)c2nc(-c3ccnc(C)c3)c[nH]2)CC1 [Compound 57, N-[3-fluoro-2-[4-[(methylamino)methyl]-1-piperidinyl]phenyl]-4-(2-methyl-4-pyridinyl)-1H-imidazole-2-carboxamide]	251 to 1000 nM
Cc1cc(-c2c[nH]c(C(=O)Nc3cccc(F)c3N3CC4CNCC4C3)n2)ccn1 (stereo not shown) [Compound 58, N-[3-fluoro-2-(hexahydropyrrolo[3,4-c]pyrrol-2(1H)-yl)phenyl]-4-(2-methyl-4-pyridinyl)-1H-imidazole-2-carboxamide]	1000 to 5000 nM
N[C@@H]1CCCN(c2c(F)cccc2NC(=O)c2nc(-c3cnn(Cc4ccccc4)c3)c[nH]2)C1 [Compound 4, N-[2-(3(R)-amino-1-piperidinyl)-3-fluorophenyl]-4-[1-(phenylmethyl)-1H-pyrazol-4-yl]-1H-imidazole-2-carboxamide]	51 to 250 nM
Cc1cc(-c2c[nH]c(C(=O)Nc3cccc(F)c3N3CCC(C(=O)N[C@H](C)c4ccccc4)CC3)n2)ccn1 [Compound 65, 1-[2-fluoro-6-[[[4-(2-methyl-4-pyridinyl)-1H-imidazol-2-yl]carbonyl]amino]phenyl]-N-(1(R)-phenylethyl)-4-piperidinecarboxamide]	1000 to 5000 nM
Cc1cc(-c2c[nH]c(C(=O)Nc3cccc(F)c3N3CCC(C(=O)N4CCOC(CCO)C4)CC3)n2)ccn1 (stereo not shown) [Compound 90, N-[3-fluoro-2-[4-[[2-(2-hydroxyethyl)-4-morpholinyl]carbonyl]-1-piperidinyl]phenyl]-4-(2-methyl-4-pyridinyl)-1H-imidazole-2-carboxamide]	251 to 1000 nM
NCC1CCN(c2c(F)cccc2NC(=O)c2nc(-c3cc(NCc4ccc(F)cc4)ncn3)c[nH]2)CC1 [Compound 73, N-[2-[4-(aminomethyl)-1-piperidinyl]-3-fluorophenyl]-4-[6-[[(4-fluorophenyl)methyl]amino]-4-pyrimidinyl]-1H-imidazole-2-carboxamide]	51 to 250 nM
N[C@@H]1CCCN(c2c(F)cccc2NC(=O)c2nc(-c3cncc(C(F)(F)F)c3)c[nH]2)C1 [Compound 9, N-[2-(3(R)-amino-1-piperidinyl)-3-fluorophenyl]-4-[5-(trifluoromethyl)-3-pyridinyl]-1H-imidazole-2-carboxamide]	1000 to 5000 nM
N[C@@H]1CCCN(c2c(F)cccc2NC(=O)c2nc(-c3cnn(Cc4ccccn4)c3)c[nH]2)C1 [Compound 7, N-[2-(3(R)-amino-1-piperidinyl)-3-fluorophenyl]-4-[1-(2-pyridinylmethyl)-1H-pyrazol-4-yl]-1H-imidazole-2-carboxamide]	1000 to 5000 nM
Cc1cc(-c2c[nH]c(C(=O)Nc3cccc(F)c3N3CCC(C(=O)N4CC[C@H](F)C4)CC3)n2)ccn1 [Compound 64, N-[3-fluoro-2-[4-[(3(S)-fluoro-1-pyrrolidinyl)carbonyl]-1-piperidinyl]phenyl]-4-(2-methyl-4-pyridinyl)-1H-imidazole-2-carboxamide]	1000 to 5000 nM
COc1cc(-c2c[nH]c(C(=O)Nc3cccc(F)c3N3CCC[C@@H](N)C3)n2)ccn1 [Compound 21, N-[2-(3(R)-amino-1-piperidinyl)-3-fluorophenyl]-4-(2-methoxy-4-pyridinyl)-1H-imidazole-2-carboxamide]	51 to 250 nM
Cc1cc(-c2c[nH]c(C(=O)Nc3cccc(F)c3N3CCC(C(C)(C)N)CC3)n2)ccn1 [Compound 67, N-[2-[4-(1-amino-1-methylethyl)-1-piperidinyl]-3-fluorophenyl]-4-(2-methyl-4-pyridinyl)-1H-imidazole-2-carboxamide]	51 to 250 nM
NCC1CCN(c2c(F)cccc2NC(=O)c2nc(-c3ccnc(N)c3)c[nH]2)CC1 [Compound 27, N-[2-[4-(aminomethyl)-1-piperidinyl]-3-fluorophenyl]-4-(2-amino-4-pyridinyl)-1H-imidazole-2-carboxamide]	1 to 50 nM
Cc1cc(-c2c[nH]c(C(=O)Nc3cccc(F)c3N3CCC(C(=O)N4CCOC(C(C)N)C4)CC3)n2)ccn1 (stereo not shown) [Compound 95, N-[2-[4-[[2-(1-aminoethyl)-4-morpholinyl]carbonyl]-1-piperidinyl]-3-fluorophenyl]-4-(2-methyl-4-pyridinyl)-1H-imidazole-2-carboxamide]	251 to 1000 nM
N[C@@H]1CCCN(c2c(F)cccc2NC(=O)c2nc(-c3cn[nH]c3)c[nH]2)C1 [Compound 11, N-[2-(3(R)-amino-1-piperidinyl)-3-fluorophenyl]-4-(1H-pyrazol-4-yl)-1H-imidazole-2-carboxamide]	51 to 250 nM
Cc1cc(-c2c[nH]c(C(=O)Nc3cccc(F)c3N3CCC(C(=O)N4CC[C@@H](F)C4)CC3)n2)ccn1 [Compound 92, N-[3-fluoro-2-[4-[(3(R)-fluoro-1-pyrrolidinyl)carbonyl]-1-piperidinyl]phenyl]-4-(2-methyl-4-pyridinyl)-1H-imidazole-2-carboxamide]	1000 to 5000 nM

Same assay, conditions: Table 10; compounds 97-132

Structure (SMILES)	IC50
CNc1nc(-c2c[nH]c(C(=O)Nc3cccc(F)c3N3CCO[C@@H](CN)C3)n2)cc(N2CC(C(=O)NC3CCCCC3)CCC2C)n1 (mixture of isomers) [Compound 110, 1-(6-(2-(2-((S)-2-(aminomethyl)morpholino)-3-fluorophenylcarbamoyl)-1H-imidazol-4-yl)-2-(methylamino)pyrimidin-4-yl)-N-cyclohexyl-6-methylpiperidine-3-carboxamide]	1 to 50 nM
CNc1nc(-c2c[nH]c(C(=O)Nc3ccccc3N3CCNCC3)n2)cc(N2CC(C(=O)NC3CCCCC3)CCC2C)n1 (racemic) [Compound 102, N-cyclohexyl-6-methyl-1-(2-(methylamino)-6-(2-(2-(piperazin-1-yl)phenylcarbamoyl)-1H-imidazol-4-yl)pyrimidin-4-yl)piperidine-3-carboxamide]	1 to 50 nM
CNc1nc(-c2c[nH]c(C(=O)Nc3cccc(F)c3N3CCC(CN)CC3)n2)cc(N2CC[C@@](OC)(C(=O)NC3CCCCC3)C2)n1 [Compound 129, (S)—N-(2-(4-(aminomethyl)piperidin-1-yl)-3-fluorophenyl)-4-(6-(3-(cyclohexylcarbamoyl)-3-methoxypyrrolidin-1-yl)-2-(methylamino)pyrimidin-4-yl)-1H-imidazole-2-carboxamide]	1 to 50 nM
CNc1nc(-c2c[nH]c(C(=O)Nc3cccc(F)c3N3CCC(CN)CC3)n2)cc(N2CCC(CN)CC2)n1 [Compound 125, 4-(6-(4-(aminomethyl)piperidin-1-yl)-2-(methylamino)pyrimidin-4-yl)-N-(2-(4-(aminomethyl)piperidin-1-yl)-3-fluorophenyl)-1H-imidazole-2-carboxamide]	1 to 50 nM
CNc1nc(-c2c[nH]c(C(=O)Nc3cccc(F)c3N3CCOCC3)n2)cc(N2CC(C(=O)NC3CCCCC3)CCC2C)n1 (racemic) [Compound 109, N-cyclohexyl-1-(6-(2-(3-fluoro-2-morpholinophenylcarbamoyl)-1H-imidazol-4-yl)-2-(methylamino)pyrimidin-4-yl)-6-methylpiperidine-3-carboxamide]	1 to 50 nM
